Data as given in patent US20220040144A1, “COMPOSITIONS AND METHODS FOR THE TREATMENT OF CUTANEOUS T CELL LYMPHOMA (CTCL)” (The State of Israel, Ministry of Agriculture & Rural …, priority 2018, published 2022).

Assays:
HUT78 cells = assay: XTT cell viability assay on HUT78 cells; format: cell-based, human; details: CBD only, concentration equal to that in combined S4+S5 (7.3 μg/ml), 48 hours
Method: (§1) XTT Cell Viability Assays—Cells were seeded in 96-wells plates at 10,000 cells per well in triplicates in DMEM or RPMI640 growing media. The following day, cells were treated with the different extracts, separated fractions and combinations thereof or pure compounds; or media or solvent only as control. To evaluate involvement of the CB1 and CB2 receptors, 10 μM of AM251 (a CB1 receptor inverse agonist, TOCRIS, 1117/1) or SR144528 (a CB2 receptor inverse agonist, Abcam) were added to the cells 1 hour prior to treatment. Cells were incubated for 48 hours and following XTT (2,3-bis(2-methoxy-4-nitro-5-sulfophenyl)-5-[(phenylamino)-carbonyl]-2H-tetrazolium inner salt) reduction was used to quantify viability according to manufacturer's instruction (BI, Kibbutz Beit-Haemek, Israel). Briefly, cells were incubated with XTT reagent for 2 hours at 37° C. in a humidified 5% CO2, 95% air atmosphere. Absorbance was recorded by a photometer Synergy H1 hybrid reader (BioTek) at 490 nm with 650 nm of reference wavelength. Cells survival was estimated according to the following equation: % cell survival=100×(At−Ac)(treatment)/(At−Ac)(control), where At and Ac are the absorbencies (490 nm) of the XTT colorimetric reaction in treated and control cultures, respectively, minus non-specific absorption measured at 650 nm. Absorbance of medium alone was also deducted from specific readings. […]

MyLa cells = assay: XTT cell viability assay on MyLa cells, with Bliss synergy analysis; details: CBD 7.3 μg/ml, CBG 3.5 μg/ml, THC 0.044 μg/ml, CBC 0.027 μg/ml (as in S4 5 + S5 6 μg/mL), 48 hours
Method: as §1

C=C(C)[C@@H]1CCC(C)=C[C@H]1c1c(O)cc(CCCCC)cc1O [CBD, cannabidiol]
cell death of HuT-78 cells (HUT78 cells): 50% | cytotoxicity of pure cannabinoids on My-La cells (in words) (MyLa cells): did not induce cell death
